Source: patent US10420831B2, “Inactivation of viruses by delipidation” (priority 2016, dated 2019)
Marks after values point to notes of the source that are not given here.

System: PRRSV strain ND99-14
Experiment: Inactivation kinetics of PRRSV, live virus TCID50 on MARC145 cells
Type: cell-based
Procedure: Inactivation kinetics experiments were conducted using PRRSV strain ND99-14, described in application U.S. Ser. No. 62/296,658, filed Feb. 18, 2016. […] Room temperature is between about 20° C. and about 25° C., and optimally between about 22° C. and about 24° C.
[…] […] Aliquots for each time point were stored at 4° C. and −70° C. until further use.
After the 24 hour sample was collected, virus was transferred to a new container. […] […] […] Aliquots for each time point were stored at 4° C. and −70° C. until further use.
Ten-fold serial dilutions (10^−1-10^−9) of mock inactivated and inactivated virus were added to MARC145 cells cultured on 96 well plates. The plates were incubated at 37° C. and 5% CO2 for 96 hours to allow live virus to infect cells. Virus replication was determined by observation of cytopathic effect (CPE) due to virus infection of the MARC145 cells. Each well containing a virus dilution was scored either positive or negative with regards to CPE and the resulting numbers of positive or negatice wells for each dilution were used to determine the TCID50/mL using the Reed-Muench TCID50 calculation. The mock inactivated virus was treated to the same media and temperature conditions as the inactivated virus without the addition of the inactivation agent.

methyl β-cyclodextrin [MBCD]
live virus reduced (20 mM MBCD, after 15 minutes of incubation): approximately 2.5 logs | PRRS virus titer (20 mM MBCD, room temperature, hour 0.25, samples stored at 4° C.): 5.8^a Log10 TCID50/mL | PRRS virus titer (20 mM MBCD, room temperature, hour 0.25, samples stored at −70° C.): 3.3 Log10 TCID50/mL | PRRS virus titer (20 mM MBCD, room temperature, hour 4, samples stored at 4° C.): 5.8 Log10 TCID50/mL | PRRS virus titer (20 mM MBCD, room temperature, hour 8, samples stored at 4° C.): 5.9 Log10 TCID50/mL | PRRS virus titer (20 mM MBCD, room temperature, hour 8, samples stored at −70° C.): 2.8 Log10 TCID50/mL | PRRS virus titer (20 mM MBCD, room temperature, hour 12, samples stored at 4° C.): 5.6 Log10 TCID50/mL | PRRS virus titer (20 mM MBCD, room temperature, hour 12, samples stored at −70° C.): 3.2 Log10 TCID50/mL | PRRS virus titer (20 mM MBCD, room temperature, hour 16, samples stored at 4° C.): 5.6 Log10 TCID50/mL | PRRS virus titer (20 mM MBCD, room temperature, hour 16, samples stored at −70° C.): 3.2 Log10 TCID50/mL | PRRS virus titer (20 mM MBCD, room temperature, hour 20, samples stored at 4° C.): 5.6 Log10 TCID50/mL | PRRS virus titer (20 mM MBCD, room temperature, hour 20, samples stored at −70° C.): 3.4 Log10 TCID50/mL | PRRS virus titer (20 mM MBCD, room temperature, hour 24, samples stored at 4° C.): 5.6 Log10 TCID50/mL | PRRS virus titer (20 mM MBCD, room temperature, hour 24, samples stored at −70° C.): 3.6 Log10 TCID50/mL | PRRS virus titer (40 mM MBCD (second 20 mM added at 24 h), hour 30, samples stored at 4° C.): 0 Log10 TCID50/mL | PRRS virus titer (40 mM MBCD (second 20 mM added at 24 h), hour 30, samples stored at −70° C.): 0 Log10 TCID50/mL | PRRS virus titer (40 mM MBCD (second 20 mM added at 24 h), hour 36, samples stored at 4° C.): 0 Log10 TCID50/mL | PRRS virus titer (40 mM MBCD (second 20 mM added at 24 h), hour 36, samples stored at −70° C.): 0 Log10 TCID50/mL | PRRS virus titer (40 mM MBCD (second 20 mM added at 24 h), hour 42, samples stored at 4° C.): 0 Log10 TCID50/mL | PRRS virus titer (40 mM MBCD (second 20 mM added at 24 h), hour 42, samples stored at −70° C.): 0 Log10 TCID50/mL | PRRS virus titer (40 mM MBCD (second 20 mM added at 24 h), hour 48, samples stored at 4° C.): 0 Log10 TCID50/mL | PRRS virus titer (40 mM MBCD (second 20 mM added at 24 h), hour 48, samples stored at −70° C.): 0 Log10 TCID50/mL | PRRS virus titer (40 mM MBCD (second 20 mM added at 24 h), hour 56, samples stored at 4° C.): 0 Log10 TCID50/mL | PRRS virus titer (40 mM MBCD (second 20 mM added at 24 h), hour 56, samples stored at −70° C.): 0 Log10 TCID50/mL | PRRS virus titer (40 mM MBCD (second 20 mM added at 24 h), hour 64, samples stored at 4° C.): 0 Log10 TCID50/mL | PRRS virus titer (40 mM MBCD (second 20 mM added at 24 h), hour 64, samples stored at −70° C.): 0 Log10 TCID50/mL | PRRS virus titer (40 mM MBCD (second 20 mM added at 24 h), hour 72, samples stored at 4° C.): 0 Log10 TCID50/mL | PRRS virus titer (40 mM MBCD (second 20 mM added at 24 h), hour 72, samples stored at −70° C.): 0 Log10 TCID50/mL | PRRS virus titer (40 mM MBCD (second 20 mM added at 24 h), hour 84, samples stored at 4° C.): 0 Log10 TCID50/mL | PRRS virus titer (40 mM MBCD (second 20 mM added at 24 h), hour 84, samples stored at −70° C.): 0 Log10 TCID50/mL | PRRS virus titer (40 mM MBCD (second 20 mM added at 24 h), hour 96, samples stored at 4° C.): 0 Log10 TCID50/mL | PRRS virus titer (40 mM MBCD (second 20 mM added at 24 h), hour 96, samples stored at −70° C.): 0 Log10 TCID50/mL | titer of PRRS virus that could be inactivated (40 mM MBCD added in a 2 step process): at least 8 log10 TCID50/mL | virus level after second addition of MBCD (in words) (second addition of 20 mM MBCD at 24 hours, next time point (30 hours)): undetectable levels | less virus when stored at −70° C. versus 4° C. (time point samples with detectable live virus): at least 100 fold
